Experimental data as given in patent US4517004A, “Aryl phosphoric triamide and aryl phosphorodiamidate urease and nitrification inhibitors and urease and nitrification inhibited urea and reduced nitrogen based fertilizer compositions” (Allied Corporation, priority 1983, dated 1985).
Where two headings read alike, the source gives them in different places.

Tests used:
[1] = biological target: T1, jack bean urease (Sigma, Type IX) (Canavalia ensiformis, UniProt P07374); experiment: Efficacy test with commercial purified jack bean urease in homogeneous solution (modified Bremner procedure); format: biochemical; details: read-out: % Inhibition 10^-6 M
T1 construct: purchased Sigma Type IX
Protocol: Efficacy tests were also conducted with jack bean urease. The procedure of Bremner (see L. A. Douglas, J. M. Bremner, Soil Biol. Biochem., 3, 859-62 (1970 and references therein) was modified by replacing the soil as the source of urease with commercial purified jack bean urease (Sigma, Type IX). The incubation then proceeds in homogeneous solution. The results are generally parallel to those obtained in the soil test of Example IV and are given in Table II.

[2] = tested on: urease in soil (Cazenovia silt loam; Plano silt loam); experiment: Urease inhibition efficacy test in soil (urea remaining after incubation); format: biochemical; details: 40 micrograms compound per gram soil, 42.8 mg urea per 20 g soil, incubated 3 days at 25° C., triplicate; for % Inhibition 40 Micrograms per gram soil, Cazenovia pH 7.2: New York soil (Cazenovia silt loam)
Protocol: Efficacy tests were conducted to evaluate the efficacy of certain representative phosphoric triamide compounds of this invention as urease inhibitors in comparison with the known compound 4-aminophenylphosphoric triamide. The inhibition tests were run in a New York soil (Cazenovia silt loam, pH 7.0), or in Wisconsin soil (Plano silt loam). Evaluations (run in triplicate) consisted of applying 800 micrograms of the test compound in 5 mL of water and 42.8 mg of urea in 1 mL of water to 20 g of air-dry soil in a glass bottle. The bottle was capped with perforated aluminum foil and incubated at 25° C. for three days prior to extraction with 100 mL of a 2M KCl solution containing 0.5 mg of phenylmercuric acetate. The extracts were then analyzed for remaining urea using an autoanalyzer. Percent inhibition was calculated as [formula] where A is urea recovered from unincubated sample (urea added to soil and immediately extracted); B is urea recovered from inhibited sample; and C is urea recovered from the control (uninhibited sample).

soil nitrification = experiment: Nitrification inhibition efficacy test in Cazenovia silt loam soil (nitrate formed from diammonium phosphate); details: Cazenovia silt loam pH 7.3
Protocol: Efficacy tests were conducted to evaluate the efficacy of certain representative phosphoric triamide compounds as nitrification inhibitors. All compounds were evaluated in Cazenovia silt loam soil (pH 7.3). The evaluations consisted of applying either simultaneously (to) or after 14 days (t14) a solution of 6.00 mg (300 μg/g soil) at diammonium phosphate in 1 mL of water to triplicate 20 g samples of air dry soil contained in 250 mL square glass bottles that had been treated with a solution of either 0 or 0.800 mg (40 μg/g soil) of the test compound in 5 mL of water. Each bottle was capped with perforated aluminum foil, incubated for 14 days at 25° C. after diammonium phosphate application, and then extracted with 100 mL of 2M potassium chloride containing 0.5 mg (5 mg/L) of phenylmercuric acetate. Each extract was allowed to settle, and an aliquot was frozen and then analyzed for nitrate using an autoanalyzer. The percent inhibition obtained during the incubation was calculated by the formula: [formula] where A is the nitrate recovered from unincubated soil before diammonium phosphate addition; B is nitrate recovered from uninhibited soil; and C is nitrate recovered from inhibited soil.

[3] = compound at 10^-6 M, purified jack bean urease, homogeneous solution

T1 sequence (P07374 whole entry, looked up): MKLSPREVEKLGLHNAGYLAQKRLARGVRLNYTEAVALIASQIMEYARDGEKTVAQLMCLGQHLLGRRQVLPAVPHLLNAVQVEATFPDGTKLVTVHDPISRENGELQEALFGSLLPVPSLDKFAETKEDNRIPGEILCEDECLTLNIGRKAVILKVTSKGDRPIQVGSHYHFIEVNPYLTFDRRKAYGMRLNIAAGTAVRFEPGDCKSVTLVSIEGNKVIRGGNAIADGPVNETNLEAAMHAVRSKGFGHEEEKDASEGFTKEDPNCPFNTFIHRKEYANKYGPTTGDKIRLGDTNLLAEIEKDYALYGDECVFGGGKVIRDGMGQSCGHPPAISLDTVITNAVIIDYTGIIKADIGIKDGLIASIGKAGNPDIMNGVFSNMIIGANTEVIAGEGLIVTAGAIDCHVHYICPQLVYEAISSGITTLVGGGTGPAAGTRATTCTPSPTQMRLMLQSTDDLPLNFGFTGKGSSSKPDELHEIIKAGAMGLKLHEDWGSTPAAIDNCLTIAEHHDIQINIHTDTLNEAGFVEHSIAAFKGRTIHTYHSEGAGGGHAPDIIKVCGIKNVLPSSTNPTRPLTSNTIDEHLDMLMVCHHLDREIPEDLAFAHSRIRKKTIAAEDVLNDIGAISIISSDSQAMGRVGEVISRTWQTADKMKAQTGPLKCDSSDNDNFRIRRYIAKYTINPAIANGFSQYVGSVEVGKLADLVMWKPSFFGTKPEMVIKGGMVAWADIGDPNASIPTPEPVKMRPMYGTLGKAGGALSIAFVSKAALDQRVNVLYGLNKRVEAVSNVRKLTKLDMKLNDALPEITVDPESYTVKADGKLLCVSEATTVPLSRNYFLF

SMILES	inhibition at 1 µM [1, 3]	% Inhibition 40 Micrograms per gram soil, Cazenovia pH 7.2 [2]	% Inhibition at 40 μg per gram of soil, t14 (soil nitrification; diammonium phosphate (300 μg/g soil) applied 14 days after compound (t14), 14 days at 25° C. after application)	% Inhibition at 40 μg per gram of soil, t0 (soil nitrification; diammonium phosphate (300 μg/g soil) applied simultaneously with compound (t0), 14 days at 25° C.)	inhibition at 1 µM [1]	% Inhibition 40 Micrograms per gram soil, Wisconsin pH 5.4 ([2]; Wisconsin soil (Plano silt loam), pH 5.4)
CC(C)(C)c1cc(OP(N)(N)=O)ccc1O [Phosphorodiamidic Acid 3-(1',1'-dimethylethyl)-4-hydroxyphenyl Ester]	29%	87%	0%	39%	–	–
Nc1ccc(OP(N)(N)=O)cc1 [4-Aminophenylphosphorodiamidate, 4-aminophenylphosphorodiamidate]	80%	91%	–	–	–	–
Nc1ccc(NP(N)(N)=O)cc1 [4-Aminophenylphosphoric triamide, 4-aminophenylphosphoric triamide, reference compound]	–	55%	–	–	0%	–
CN(c1ccc(O)cc1)P(N)(N)=O [N-(Methyl)-N-(4-hydroxyphenyl) Phosphoric triamide]	–	87%	–	–	–	33%
